These results are taken from patent US11357871B2, “Challenge test for diagnosing subtypes of ASD” (Stalicla S.A., priority 2017, dated 2022).

Read-outs that look alike come from different tables or passages of the source.

Experiment [1] relates to ASD phenotype 2 patients. The note with it: wording of CGI-I rating. Here is the method: (§1) The effects of sulforaphane containing Broccoli sprout extract was observed and quantified in 7 individuals suffering from ASD and previously classified as either phenotype 1 or phenotype 2 patients.
We describe a procedure consisting of an evaluation of patients with ASD prior and after administration of broccoli sprout extract. The extract was prepared from selected broccoli seeds known to have high yield of sulforaphane which were surface-disinfected and grown (sprouted) for 3 days in a commercial sprouting facility under controlled light and moisture conditions. A boiling water extract was prepared, filtered, cooled, and treated with the enzyme myrosinase (from daikon sprouts) to convert precursor glucosinolates to isothiocyanates. Behavioral evaluation of patients was performed prior, during and after administration of sulforaphane-containing broccoli sprout extract. Baseline evaluation of patients was performed using standard clinical endpoints (ADI-R subscales ADI-SI, ADI-C and ADI-RI).
Challenge regimen consisted of the administration of a Broccoli Sprout Extract dose corresponding to a total daily dosage of 4 μmol/kg of sulforaphane, administered in 3 doses over the course of the day. […]

Experiment [2] concerns ASD phenotype 1 patients. The experiment is described as follows: Nrf2-activator challenge test, ASD phenotype 1 patients (ADI-R, CGI-S, CGI-I). The class given is in vivo, human. To be noted: selected patient cohort. As for the experimental part: as §1
The extract was prepared from selected broccoli seeds known to have high yield of sulforaphane which were surface-disinfected and grown (sprouted) for 3 days in a commercial sprouting facility under controlled light and moisture conditions.

Experiment [3] concerns lymphoblastoid cell lines of ASD phenotype 1 patients. As to the kind of experiment: Biolog Phenotype Mammalian MicroArray (PM-M) NADH/energy production, phenotype 1 cells. The class given is cell-based, human. The note with it: cells exposed to the substance; AUC (Figure 1) and endpoint absorbance (Table 1). Here is the method:
From all subjects, blood samples were collected and lymphoblastoid cell lines generated. Briefly, tubes containing anticoagulant citrate dextrose (ACD) were used to collect blood samples via venipuncture, in order to ensure that the blood cells remained metabolically active. The tubes were kept at room temperature and processed within 24 hours.
Cell lines were obtained by immortalization of lymphocytes from blood samples using Epstein-Barr virus.
Energy production of cells was measured using commercially available Phenotype Mammalian MicroArrays (PM-Ms, Biolog, Hayward, Calif., USA).
The compound in each well was designed to be used by the cells, either as the sole energy source or as the metabolic effector influencing the utilization of an energy source (α-D-glucose) added in the cell suspension. […] Before plating, cell viability and number were assessed utilizing a BioRad cell counter and a trypan blue dye. The concentration of live cells required for plating was 4×10^5 cells/mL, corresponding to 20,000 cells per well in a volume of 50 μL. […] Cells were incubated for 48 h at 37° C. in 5% CO2, using the modified Biolog IF-M1 medium.
The Biolog IF-M1 medium was modified for plates PM-M1 to M4 by adding the following to 100 mL of Biolog IF-M1: 1.1 mL of 100× penicillin/streptomycin solution, 0.16 mL of 200 mM glutamine (final concentration 0.3 mM), and 5.3 mL of Fetal Bovine Serum (FBS, final concentration 5%). For plates PM-M5 to M8, 5.5 mM α-D-glucose will be added in place of FBS.
During the 48-hour incubation, the only energy source the cells had was the chemical in the well. After this first incubation, Biolog Redox Dye Mix MB was added (10 μL/well) and the plates were incubated under the same conditions for an additional 24 hours. As the cells metabolized the energy source, tetrazolium dye in the media was reduced, producing a purple color according to the amount of NADH generated.
For the last 24 hours of the experiment, the plates were incubated in the Omnilog system, which collects optical density readings every 15 minutes, generating 96 data-points for each well. The system also elaborated the kinetic curve for the metabolic reaction in each well and extrapolated parameters such as slope, highest point, endpoint, area under the curve (AUC), and lag.
At the end of the 24-hour incubation, the plates were analyzed utilizing a microplate reader with readings at 590 and 750 nm. The first value (A590) indicated the highest absorbance peak of the redox dye and the second value (A750) gave a measure of the background noise. The relative absorbance (A590-750) was calculated per well.

With `C[S@@+]([O-])CCCCN=C=S` [sulforaphane, 1-isothiocyanato-4R-(methylsulfinyl)butane], the Clinical significance entry in experiment [1] (Example 4 Patient 1 (phenotype 2)) and in experiment [1] (Example 4 Patient 2 (phenotype 2)) was “Very much improved” in each case. Further, the “reduction of disease severity as measured through the ADI-R, SRS and GGI-S/CGI-I” value in experiment [2] is recorded as “not effective in reducing disease severity”.

In the case of “FGF-1(aFGF): growth factor that selectively targets the PI3K-Akt-mTOR pathway”, in experiment [3], the “NADH production of ASD phenotype 1 cells compared to TDs and non-phenotype 1 cells” value was “significantly reduced production of NADH”.

Turning to IGF-I: insulin-like growth factor 1, the “NADH production of ASD phenotype 1 cells compared to TDs and non-phenotype 1 cells” value in experiment [3] is given as “no significant differences”.

For IL-1beta: Th1 cytokine, in experiment [3], the “NADH production of ASD phenotype 1 cells compared to TDs and non-phenotype 1 cells” value is reported as “significantly lower levels of NADH”.

For the compound IL-6: Th1 cytokine, the “NADH production of ASD phenotype 1 cells compared to TDs and non-phenotype 1 cells” value in experiment [3] is given as “significantly lower levels of NADH”.

Turning to “PDGF-AB: platelet-derived growth factor AB”, the “NADH production of ASD phenotype 1 cells compared to TDs and non-phenotype 1 cells” value in experiment [3] is on record as “no significant differences”.

On to “hGH(Somatotropin): growth factor that selectively targets the PI3K-Akt-mTOR pathway”, for which, in experiment [3], the “NADH production of ASD phenotype 1 cells compared to TDs and non-phenotype 1 cells” value was “significantly reduced production of NADH”.
